Measured values: patent US8206983B2, “In vitro methods for the induction and maintenance of plant cell lines as single suspension cells with intact cell walls” (Dow AgroSciences, LLC., priority 2006, dated 2012)

Assays:
[1] = test system: JTNT1 single cells; experiment: Cytological characterization of JTNT1 single cells (nucleus, cell wall); type: cell-based, tobacco
Method: JTNT1 Tobacco single cell initiation and sample collection. JTNT1 Tobacco single cells were initiated in two different media, NT1B with 3% sucrose (NT1B-Suc) and NT1B with 3% glycerol (NT1B-Gly) in 3.5 day culture cycle. […] The flasks were closed with a foam stopper and cultured on a orbital shaker at 130 rpm in dark at 25-28° C. The cultures were sub cultured every 3.5 days up to a period of 14 days. Four samples (Suc/Gly grown cells and the control cultures in Suc/Gly media with 0.2% DMSO) of the cultures were harvested every 3.5 days by spinning the suspension at 3000 rpm for 5 minutes. The samples were immediately lyophilized to prevent any cell oxidation to minimize any deleterious effect on the samples introduced post harvest. Single cells were stained with Hoechst nuclear stain for an hour and observed under scopes for any nuclear anomaly up to two culture cycles.
Cell viability and Cell wall. Established JTNT1 single cells were used to stain with FUN1 (F-7030, Molecular Probes, Invitrogen Inc) cell stain which is used for viability test in yeast, and this contains two color fluorescent probes. The third one, Calcofluor White M2R which stains cell wall, was used to stain the cells. For JTNT1 single cells, […] of FUN1 stain is added and the culture was incubated at room temperature for 20 mins 1 mL fresh culture media was added to wash the excess stain and centrifuged at 3000 rpm; the supernantant was discarded. The cells were examined and imaged on Zeiss ApoTome microscope.
Nucleus. Single cells were stained with Hoechst nuclear stain for an hour and observed on Zeiss Apo Tome for any nuclear anomaly up to two culture cycles. Crystal violet stain was also used as a live nuclear stain for observing nuclear structure for ploidy characterization

[2] = test system: JTNT1 tobacco cell suspension cultures; experiment: Single cell production, growth and viability of JTNT1 suspension with microtubule inhibitors in 24-well plates, glycerol medium; conditions: for cell growth and appearance: all concentrations tested (1, 3, 10 μM)
Excerpt: JTNT1 Tobacco Suspension Cultures. […] Furthermore, Suc stabilizes preformed microtubules, making an examination of the effects of MTIs on preformed microtubules unfeasible. In addition, sucrose increases solution viscosity substantially, and tubulin polymerization is altered at least in part by slowed dimer and polymer diffusion rates. Thus, it was important to have low or no sucrose in medium where the single cell production. Thus, a new JTNT1 line habituated in Glycerol was developed for this study.
Each of the 24 well contained 1 ml of JTNT1 suspension. The 24-well plates were kept on an Innova 4900 Multi Environmental Shaker with special clamps and harnesses to allow stacking of plates up to 6 plates high. The plates were rotated at a speed of 130 rpm and 25° C. in dark.
Single Cell Production. Each compound was dissolved in dimethyl sulfoxide (DMSO) to provide 0.5 Molar stock solutions. One ml of JTNT1 suspension (1 ml PCV/20 ml tobacco media) was added to each well of the 24 well plates. To each well an individual chemical was added to achieve the desired concentrations (at 1 μM, 3 μM, and 10 μM). The cultures were allowed to grow for 7 days on the Innova Shaker. Each day turbidity measurements was taken on each well using a SpectraMax M2^e by Molecular devices (set at 600 absorbance, with 5 readings taken per well). On day 7, cells were observed using the Leica 5000 inverted confocal microscope for formation of single cells and cell viability.

[3] = test system: JTNT1 cells; experiment: Plasma membrane staining of single cells with FM4-64; type: cell-based, tobacco; conditions: 100 nM
Method: Plasmamembrane. JTNT1 cells were incubated with 5 μm FM4-64 (styryl dye) for 5 minutes and washed with fresh media. The culture was centrifuged at 3000 rpm, and fresh media was added. The cells were visualized on Zeiss ApoTome microscope.

[4] = test system: plant tubulin; conditions: 1 M Sucrose; cited from earlier work

## COc1ccc([C@H]2CC=CC[C@@H]2[N+](=O)[O-])c(OC)c1OC (racemic) [trimethoxyphenylcyclohexene, (±)-4S,5R-4-nitro-5-(2,3,4-trimethoxyphenyl)-cyclohexene]
[1]; 1 uM, 3.5 d cultures
  nuclear organization of single cells: single nucleus
[1]; 14 days of continuous treatments
  nuclear ploidy: low or no nuclear ploidy percentage
[2]
  bleaching of cells: mild bleaching
  cell growth and appearance: grew very well
[2]; 1 μM, 3 μM, and 10 μM
  single cell formation: promoted the formation of single cells
[2]; across all levels (1 μM, 3 μM, 10 μM)
  cell viability: 80-90%

## CCC(C)(CC)c1cc(NC(=O)c2c(OC)cccc2OC)on1 [Isoxeben]
[3]
  FM4-64 staining of single cells: extensive vesicle on the surface

## CSC(=O)c1c(C(F)F)nc(C(F)(F)F)c(C(=O)SC)c1CC(C)C [Dithiopyr]
[2]; 1 μM and 3 μM
  single cell formation: single cells were formed
[2]; 10 μM
  single cell formation: the concentration of the cells was low
[2]
  cell growth and appearance: healthy, growing and yellow in color

## COP(=S)(NC(C)C)Oc1ccc(C)cc1[N+](=O)[O-] (stereo not drawn) [APM, Amiprophosmethyl]
[4]
  effect on plant microtubule length: concentration-dependent decrease in plant microtubule length
[2]
  concentration at which single cells were formed: 1 to 10 µM
[2]; 1 μM and 3 μM
  cell growth: grew well
[2]; above 1-10 μM
  effect at higher concentration: remarkable reduction of growth and cell division inhibition
[2]; tobacco, 7 days
  cell viability (Fluorescein diacetate and Propidium Iodine stains): up to 70%
